molecular target: T1, N-type calcium channel (NTCC) (Homo sapiens, UniProt Q00975); assay: FLIPR calcium mobilization assay for N-type calcium channel (differentiated IMR32 cells); type: cell-based; settings: about 1.0 μM or less; calcium mobilization and/or electrophysiological assay
T1 construct: host or cells: IMR32 cells differentiated with dibutyryl cAMP and bromodeoxyuridine
Procedure: Cell maintenance and differentiation. Unless noted otherwise, cell culture reagents were purchased from Mediatech of Hemdon, Md. IMR32 cells (American Type Culture Collection, ATCC, Manassas, Va.) were routinely cultured in growth medium consisting of minimum essential medium containing 10% fetal bovine serum (FBS, Hyclone, Logan, Utah), 100 U/mL penicillin, 100 μg/mL streptomycin, 2 mM L-glutamine, 1 mM sodium pyruvate, and 1× MEM non-essential amino acids. 80-90% confluent flasks of cells were differentiated using the following differentiation medium: Growth medium plus 1 mM dibutyryl cyclic AMP (Sigma, St. Louis, Mo.), and 2.5 μM bromodeoxyuridine (Sigma). Cells were differentiated for 8 days by replacing differentiation medium every 2-3 days.
FLIPR Calcium Mobilization Assay for N-type Calcium Channel. One day prior to performing this assay, differentiated IMR32 cells were treated with 1× CellStripper, and seeded on poly-D-lysine-coated 96-well clear-bottom black plates (Becton Dickinson, Franklin Lakes, N.J.) at 200,000 cells/well. On the day of the assay, the cell plates were washed with IMR32 buffer (127 mM NaCl, 1 mM KCl, 2 mM MgCl2, 700 μM NaH2PO4, 5 mM CaCl2, 5 mM NaHCO3, 8 mM HEPES, 10 mM glucose, pH 7.4), then pre-stimulated with KCl and loaded as follows: 0.05 mL of IMR32 buffer, 0.05 mL of each compound tested diluted in IMR32 buffer containing 20 μM nitrendipine (Sigma), and 0.1 mL KCl dissolved in IMR32 buffer, plus Fluo-4 were added (3 μM final concentration, Molecular Probes, Eugene, Oreg.). Final test compound concentrations ranged from about 846 pM to about 17 μM, final nitrendipine concentration was 5 μM, and final KCl concentration was 90 mM. After 1 hour, the cells were washed twice with 0.05 mL of each compound tested in nitrendipine-containing IMR32 buffer (no KCl or Fluo-4), and then replaced with 0.1 mL of each compound tested in nitrendipine-containing IMR32 buffer. Plates were then transferred to a Fluorimetric imaging Plate Reader (FLIPR^96, Molecular Devices, Inc., Sunnyvale, Calif.) for assay. The FLIPR measured basal Fluo-4 fluorescence for 315 seconds (i.e., 5 minutes and 15 seconds), then added 0.1 mL KCl agonist dissolved in IMR32 buffer and measured fluorescence for another 45 seconds. Final test compound concentrations on the cells after FLIPR read ranged from about 846 pM to about 17 μM, final nitrendipine concentration was 5 μM, and final KCl concentration was 90 mM. Data were collected over the entire time course and analyzed using Excel, Graph Pad Prism (version 3.02, Graph Pad, San Diego, Calif.), or an in-house non-linear regression analysis software.

T1 sequence (Q00975 whole entry): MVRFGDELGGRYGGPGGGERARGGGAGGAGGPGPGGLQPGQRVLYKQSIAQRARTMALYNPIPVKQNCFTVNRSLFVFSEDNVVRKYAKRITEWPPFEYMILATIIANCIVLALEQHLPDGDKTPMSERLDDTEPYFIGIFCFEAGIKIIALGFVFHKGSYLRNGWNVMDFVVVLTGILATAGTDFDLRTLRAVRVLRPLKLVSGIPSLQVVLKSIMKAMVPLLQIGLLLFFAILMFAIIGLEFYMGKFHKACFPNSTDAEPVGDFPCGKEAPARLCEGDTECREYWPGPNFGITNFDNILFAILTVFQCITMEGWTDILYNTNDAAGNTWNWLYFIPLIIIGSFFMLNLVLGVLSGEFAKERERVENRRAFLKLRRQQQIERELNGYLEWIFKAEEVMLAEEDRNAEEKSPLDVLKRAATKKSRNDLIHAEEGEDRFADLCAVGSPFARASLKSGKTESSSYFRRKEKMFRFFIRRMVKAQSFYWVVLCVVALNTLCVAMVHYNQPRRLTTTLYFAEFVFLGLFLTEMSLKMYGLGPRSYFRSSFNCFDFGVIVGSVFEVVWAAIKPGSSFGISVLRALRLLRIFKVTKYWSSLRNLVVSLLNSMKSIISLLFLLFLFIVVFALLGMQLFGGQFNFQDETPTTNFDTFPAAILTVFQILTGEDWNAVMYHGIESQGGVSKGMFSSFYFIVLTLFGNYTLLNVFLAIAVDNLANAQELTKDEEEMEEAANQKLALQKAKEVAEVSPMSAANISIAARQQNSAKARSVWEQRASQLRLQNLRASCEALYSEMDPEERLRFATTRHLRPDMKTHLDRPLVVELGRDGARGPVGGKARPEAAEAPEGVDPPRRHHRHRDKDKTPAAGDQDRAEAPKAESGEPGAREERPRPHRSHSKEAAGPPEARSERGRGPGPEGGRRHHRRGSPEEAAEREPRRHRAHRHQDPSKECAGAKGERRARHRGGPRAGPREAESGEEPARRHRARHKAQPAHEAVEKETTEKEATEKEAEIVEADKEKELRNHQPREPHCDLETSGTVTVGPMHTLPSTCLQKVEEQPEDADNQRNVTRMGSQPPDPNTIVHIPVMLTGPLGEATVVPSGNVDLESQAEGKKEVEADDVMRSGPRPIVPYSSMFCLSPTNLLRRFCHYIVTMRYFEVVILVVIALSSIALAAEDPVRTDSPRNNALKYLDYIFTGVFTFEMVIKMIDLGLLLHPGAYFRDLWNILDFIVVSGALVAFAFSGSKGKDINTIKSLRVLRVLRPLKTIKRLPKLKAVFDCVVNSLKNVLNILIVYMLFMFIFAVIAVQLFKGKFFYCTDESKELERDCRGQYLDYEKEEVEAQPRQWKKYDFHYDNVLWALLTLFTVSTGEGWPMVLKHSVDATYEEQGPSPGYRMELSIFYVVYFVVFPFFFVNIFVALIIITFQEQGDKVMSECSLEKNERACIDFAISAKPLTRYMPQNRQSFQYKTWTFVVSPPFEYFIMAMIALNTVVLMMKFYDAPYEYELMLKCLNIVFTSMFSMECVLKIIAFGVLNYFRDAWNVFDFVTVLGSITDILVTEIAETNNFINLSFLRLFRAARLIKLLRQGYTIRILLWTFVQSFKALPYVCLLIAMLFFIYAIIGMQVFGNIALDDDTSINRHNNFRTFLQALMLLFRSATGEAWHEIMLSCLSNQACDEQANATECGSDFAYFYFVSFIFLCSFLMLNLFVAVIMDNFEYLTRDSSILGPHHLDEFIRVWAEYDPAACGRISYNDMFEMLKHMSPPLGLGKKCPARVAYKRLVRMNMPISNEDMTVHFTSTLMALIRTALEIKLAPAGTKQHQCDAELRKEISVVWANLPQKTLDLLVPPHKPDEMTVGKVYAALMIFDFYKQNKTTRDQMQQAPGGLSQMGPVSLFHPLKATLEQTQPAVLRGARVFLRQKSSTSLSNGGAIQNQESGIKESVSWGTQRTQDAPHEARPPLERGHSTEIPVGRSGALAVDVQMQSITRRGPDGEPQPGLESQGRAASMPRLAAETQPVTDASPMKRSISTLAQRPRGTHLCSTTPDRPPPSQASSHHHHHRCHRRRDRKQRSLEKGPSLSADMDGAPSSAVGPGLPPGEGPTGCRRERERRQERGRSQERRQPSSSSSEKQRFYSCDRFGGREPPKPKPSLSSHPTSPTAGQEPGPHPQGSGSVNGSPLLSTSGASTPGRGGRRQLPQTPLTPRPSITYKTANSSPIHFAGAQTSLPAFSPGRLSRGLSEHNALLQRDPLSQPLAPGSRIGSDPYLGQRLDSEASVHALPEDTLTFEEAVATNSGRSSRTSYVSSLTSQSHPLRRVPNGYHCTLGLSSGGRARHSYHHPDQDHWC

IC50, ≤ 1000 nM:
O=S(=O)(c1ccc(OC(F)F)cc1)N1CCC(=NOC(c2ccc(F)cc2)c2ccc(F)cc2)CC1 [Example 232, 1-(4-(Difluoromethoxy)phenylsulfonyl)piperidin-4-one O-bis(4-fluorophenyl)methyl oxime]
CN1CCOc2cc(S(=O)(=O)N3CCC(=NOC(c4ccc(F)cc4)c4ccc(F)cc4)CC3)ccc21 [Example 237, 1-(4-Methyl-3,4-dihydro-2H-benzo[b][1,4]oxazin-7-ylsulfonyl)piperidin-4-one O-bis(4-fluorophenyl)methyl oxime]
COc1ccccc1S(=O)(=O)N1CCC(=NOC(c2ccc(F)cc2)c2ccc(F)cc2)CC1 [Example 238, 1-(2-Methoxyphenylsulfonyl)piperidin-4-one O-bis(4-fluorophenyl)methyl oxime]
O=S(=O)(c1ccc(F)c(F)c1)N1CCC(=NOC(c2ccc(F)cc2)c2ccc(F)cc2)CC1 [Example 243, 1-(3,4-Difluorophenylsulfonyl)piperidin-4-one O-bis(4-fluorophenyl)methyl oxime]
O=S(=O)(c1cc(F)cc(F)c1)N1CCC(=NOC(c2ccc(F)cc2)c2ccc(F)cc2)CC1 [Example 244, 1-(3,5-Difluorophenylsulfonyl)piperidin-4-one O-bis(4-fluorophenyl)methyl oxime]
O=S(=O)(c1cccc2cccnc12)N1CCC(=NOC(c2ccc(F)cc2)c2ccc(F)cc2)CC1 [Example 251, 1-(Quinolin-8-ylsulfonyl)piperidin-4-one O-bis(4-fluorophenyl)methyl oxime]
O=S(=O)(c1cccs1)N1CCC(=NOC(c2ccc(F)cc2)c2ccc(F)cc2)CC1 [Example 252, 1-(Thiophen-2-ylsulfonyl)piperidin-4-one O-bis(4-fluorophenyl)methyl oxime]
N#Cc1ccc(S(=O)(=O)N2CCC(=NOC(c3ccc(F)cc3)c3ccc(F)cc3)CC2)cc1 [Example 256, 4-(4-(Bis(4-fluorophenyl)methoxyimino)piperidin-1-ylsulfonyl)benzonitrile]
O=S(=O)(c1ccc(OC(F)(F)F)cc1)N1CCC(=NOC[C@@H]2Cc3ccccc3N2)CC1 [Example 263, (S)-1-(4-(trifluoromethoxy)phenylsulfonyl)piperidin-4-one O-indolin-2-ylmethyl oxime]
O=S(=O)(c1ccc(OC(F)(F)F)cc1)N1CCC(=NOCC2Oc3ccccc3O2)CC1 [Example 265, 1-(4-(Trifluoromethoxy)phenylsulfonyl)piperidin-4-one O-benzo[d][1,3]dioxol-2-ylmethyl oxime]
N#Cc1cccc(S(=O)(=O)N2CCC(=NOC(c3ccc(F)cc3)c3ccc(F)cc3)CC2)c1 [Example 267, 3-(4-(Bis(4-fluorophenyl)methoxyimino)piperidin-1-ylsulfonyl)benzonitrile]
COc1ccc(S(=O)(=O)N2CCC(=NOC(c3ccc(F)cc3)c3ccc(F)cc3)CC2)cc1OC [Example 268, 1-(3,4-Dimethoxyphenylsulfonyl)piperidin-4-one O-bis(4-fluorophenyl)methyl oxime]
N#Cc1cccc(C(ON=C2CCN(S(=O)(=O)c3ccc(OC(F)(F)F)cc3)CC2)c2ccncc2)c1 (stereo not shown) [Example 269, 3-(Pyridin-4-yl(1-(4-(trifluoromethoxy)phenylsulfonyl)piperidin-4-ylideneaminooxy)methyl)benzonitrile]
N#Cc1cccc(C(ON=C2CCN(S(=O)(=O)c3ccc(OC(F)(F)F)cc3)CC2)c2cccnc2)c1 (stereo not shown) [Example 270, 3-(Pyridin-3-yl(1-(4-(trifluoromethoxy)phenylsulfonyl)piperidin-4-ylideneaminooxy)methyl)benzonitrile]
N#Cc1cccc(C(ON=C2CCN(S(=O)(=O)c3ccc(OC(F)(F)F)cc3)CC2)c2ccccn2)c1 (stereo not shown) [Example 271, 3-(Pyridin-2-yl(1-(4-(trifluoromethoxy)phenylsulfonyl)piperidin-4-ylideneaminooxy)methyl)benzonitrile]
COCC(ON=C1CCN(S(=O)(=O)c2ccc(OC(F)(F)F)cc2)CC1)c1cccc(C#N)c1 (stereo not shown) [Example 273, 3-(2-Methoxy-1-(1-(4-(trifluoromethoxy)phenylsulfonyl)piperidin-4-ylideneaminooxy)ethyl)benzonitrile]
N#Cc1cccc(C(ON=C2CCN(S(=O)(=O)c3ccc(NC4CC4)nc3)CC2)C2CC2)c1 (stereo not shown) [Example 274, 3-(Cyclopropyl(1-(6-(cyclopropylamino)pyridin-3-ylsulfonyl)piperidin-4-ylideneaminooxy)methyl)benzonitrile]
N#Cc1cccc(C(ON=C2CCN(S(=O)(=O)c3ccc(NC4CCCC4)nc3)CC2)C2CC2)c1 (stereo not shown) [Example 275, 3-((1-(6-(Cyclopentylamino)pyridin-3-ylsulfonyl)piperidin-4-ylideneaminooxy)(cyclopropyl)methyl)benzonitrile]
CC(ON=C1CCN(S(=O)(=O)c2cccc(C(F)(F)F)c2)CC1)c1ccccc1 (stereo not shown) [Example 276, 1-(3-(Trifluoromethyl)phenylsulfonyl)piperidin-4-one O-1-phenylethyl oxime]
N#Cc1cccc(C(ON=C2CCN(S(=O)(=O)c3ccc(C#N)nc3)CC2)C2CC2)c1 (stereo not shown) [Example 278, 5-(4-((3-Cyanophenyl)(cyclopropyl)methoxyimino)piperidin-1-ylsulfonyl)picolinonitrile]
N#Cc1cccc(CON=C2CCN(S(=O)(=O)c3ccc(C(F)(F)F)cc3)CC2)c1 [Example 280, 3-((1-(4-(Trifluoromethyl)phenylsulfonyl)piperidin-4-ylideneaminooxy)methyl)benzonitrile]
N#Cc1cccc(CON=C2CCN(S(=O)(=O)c3ccc(OCCF)cc3)CC2)c1 [Example 281, 3-((1-(4-(2-Fluoroethoxy)phenylsulfonyl)piperidin-4-ylideneaminooxy)methyl)benzonitrile]
N#Cc1cccc(CON=C2CCN(S(=O)(=O)c3cccc(C#N)c3)CC2)c1 [Example 282, 3-(4-(3-Cyanobenzyloxyimino)piperidin-1-ylsulfonyl)benzonitrile]
N#Cc1cccc(S(=O)(=O)N2CCC(=NOCc3cccc(C(F)(F)F)c3)CC2)c1 [Example 284, 3-(4-(3-(Trifluoromethyl)benzyloxyimino)piperidin-1-ylsulfonyl)benzonitrile]
O=S(=O)(c1cccc(C(F)(F)F)c1)N1CCC(=NOC(c2ccc(F)cc2)c2ccc(F)cc2)CC1 [Example 285, 1-(3-(Trifluoromethyl)phenylsulfonyl)piperidin-4-one O-bis(4-fluorophenyl)methyl oxime]
COC(=O)c1cccc(S(=O)(=O)N2CCC(=NOC(c3ccc(F)cc3)c3ccc(F)cc3)CC2)c1 [Example 286, Methyl 3-(4-(bis(4-fluorophenyl)methoxyimino)piperidin-1-ylsulfonyl)benzoate]
O=S(=O)(c1ccsc1)N1CCC(=NOC(c2ccc(F)cc2)c2ccc(F)cc2)CC1 [Example 287, 1-(Thiophen-3-ylsulfonyl)piperidin-4-one O-bis(4-fluorophenyl)methyl oxime]
O=S(=O)(c1ccccn1)N1CCC(=NOC(c2ccc(F)cc2)c2ccc(F)cc2)CC1 [Example 288, 1-(Pyridin-2-ylsulfonyl)piperidin-4-one O-bis(4-fluorophenyl)methyl oxime]
O=S(=O)(c1ccccc1OC(F)(F)F)N1CCC(=NOC(c2ccc(F)cc2)c2ccc(F)cc2)CC1 [Example 289, 1-(2-(Trifluoromethoxy)phenylsulfonyl)piperidin-4-one O-bis(4-fluorophenyl)methyl oxime]
O=S(=O)(c1cccc(OC(F)(F)F)c1)N1CCC(=NOC(c2ccc(F)cc2)c2ccc(F)cc2)CC1 [Example 290, 1-(3-(Trifluoromethoxy)phenylsulfonyl)piperidin-4-one O-bis(4-fluorophenyl)methyl oxime]
O=S(=O)(c1cccnc1)N1CCC(=NOC(c2ccc(F)cc2)c2ccc(F)cc2)CC1 [Example 291, 1-(Pyridin-3-ylsulfonyl)piperidin-4-one O-bis(4-fluorophenyl)methyl oxime]

— patent US20090298878A1, “OXIME COMPOUNDS AND THE USE THEREOF” (priority 2006, published 2009)
